Assay results reported in patent US20130338106A1, “COMPOUNDS INHIBITING LEUCINE-RICH REPEAT KINASE ENZYME ACTIVITY” (priority 2011, published 2013).
Where two headings read alike, the source gives them in different places.

How the values were obtained:
Assay type in all cases: biochemical
ABL H396P = molecular target: T1, ABL H396P (Homo sapiens, UniProt P00519, H396P); experiment: ProfilerPro Kinase Selectivity, ABL H396P; conditions: tested at 10 uM, read-out: percent inhibition of the kinase activity
T1 construct: purchased Caliper LifeSciences
Method: (§1) Kinome selectivity profiling was performed using two example compounds according to the manufacturer's instructions using Caliper LifeSciences' ProfilerPro Kinase Selectivity Assay Kits. Compounds prepared in Examples 1 and 7 were tested at 10 uM and data were recorded using the Caliper LabChip® EZ Reader™. Each compounds' percent inhibition of the kinase activity measured in this manner is reported in the following lists.

AKT2 = molecular target: T2, AKT2 (Homo sapiens, UniProt P31751); experiment: ProfilerPro Kinase Selectivity, AKT2; conditions: tested at 10 uM, read-out: percent inhibition of the kinase activity
T2 construct: purchased Caliper LifeSciences
Method: as §1

BRSK2 = molecular target: T3, BRSK2 (Homo sapiens, UniProt Q8IWQ3); experiment: ProfilerPro Kinase Selectivity, BRSK2; conditions: tested at 10 uM, read-out: percent inhibition of the kinase activity
T3 construct: purchased Caliper LifeSciences
Method: as §1

BTK = molecular target: T4, BTK (Homo sapiens, UniProt Q06187); experiment: ProfilerPro Kinase Selectivity, BTK; conditions: tested at 10 uM, read-out: percent inhibition of the kinase activity
T4 construct: purchased Caliper LifeSciences
Method: as §1

CAMK1A = molecular target: T5, CAMK1A (Homo sapiens, UniProt Q14012); experiment: ProfilerPro Kinase Selectivity, CAMK1A; conditions: tested at 10 uM, read-out: percent inhibition of the kinase activity
T5 construct: purchased Caliper LifeSciences
Method: as §1

CK1G3 = molecular target: T6, CK1G3 (Homo sapiens, UniProt Q9Y6M4); experiment: ProfilerPro Kinase Selectivity, CK1G3; conditions: tested at 10 uM, read-out: percent inhibition of the kinase activity
T6 construct: purchased Caliper LifeSciences
Method: as §1

DCAMKL2 = molecular target: T7, DCAMKL2 (Homo sapiens, UniProt Q8N568); experiment: ProfilerPro Kinase Selectivity, DCAMKL2; conditions: tested at 10 uM, read-out: percent inhibition of the kinase activity
T7 construct: purchased Caliper LifeSciences
Method: as §1

DYRK1B = molecular target: T8, DYRK1B (Homo sapiens, UniProt Q9Y463); experiment: ProfilerPro Kinase Selectivity, DYRK1B; conditions: tested at 10 uM, read-out: percent inhibition of the kinase activity
T8 construct: purchased Caliper LifeSciences
Method: as §1

EPHB3 = molecular target: T9, EPHB3 (Homo sapiens, UniProt P54753); experiment: ProfilerPro Kinase Selectivity, EPHB3; conditions: tested at 10 uM, read-out: percent inhibition of the kinase activity
T9 construct: purchased Caliper LifeSciences
Method: as §1

ERK2 = molecular target: T10, ERK2 (Homo sapiens, UniProt P28482); experiment: ProfilerPro Kinase Selectivity, ERK2; conditions: tested at 10 uM, read-out: percent inhibition of the kinase activity
T10 construct: purchased Caliper LifeSciences
T10 sequence (P28482 whole entry, species assumed): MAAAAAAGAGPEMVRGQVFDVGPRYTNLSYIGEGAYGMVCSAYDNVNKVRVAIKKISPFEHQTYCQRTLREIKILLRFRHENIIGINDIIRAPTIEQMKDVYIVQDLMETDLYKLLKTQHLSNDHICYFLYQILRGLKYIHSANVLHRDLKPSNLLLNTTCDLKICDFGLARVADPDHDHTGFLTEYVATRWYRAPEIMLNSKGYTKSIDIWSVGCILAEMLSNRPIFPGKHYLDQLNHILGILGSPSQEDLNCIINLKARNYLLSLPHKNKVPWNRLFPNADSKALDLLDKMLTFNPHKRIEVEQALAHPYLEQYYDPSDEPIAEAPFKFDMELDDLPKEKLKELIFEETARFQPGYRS
Method: as §1

FGFR3 K650E = molecular target: T11, FGFR3 K650E (Homo sapiens, UniProt P22607, K650E); experiment: ProfilerPro Kinase Selectivity, FGFR3 K650E; conditions: tested at 10 uM, read-out: percent inhibition of the kinase activity
T11 construct: purchased Caliper LifeSciences
Method: as §1

FGFR4 = molecular target: T12, FGFR4 (Homo sapiens, UniProt P22455); experiment: ProfilerPro Kinase Selectivity, FGFR4; conditions: tested at 10 uM, read-out: percent inhibition of the kinase activity
T12 construct: purchased Caliper LifeSciences
Method: as §1

FGR = molecular target: T13, FGR (Homo sapiens, UniProt P09769); experiment: ProfilerPro Kinase Selectivity, FGR; conditions: tested at 10 uM, read-out: percent inhibition of the kinase activity
T13 construct: purchased Caliper LifeSciences
Method: as §1

FLT3 = molecular target: T14, FLT3 (Homo sapiens, UniProt P36888); experiment: ProfilerPro Kinase Selectivity, FLT3; conditions: tested at 10 uM, read-out: percent inhibition of the kinase activity
T14 construct: purchased Caliper LifeSciences
Method: as §1

FLT-3 D835Y = molecular target: T15, FLT-3 D835Y (Homo sapiens, UniProt P36888, D835Y); experiment: ProfilerPro Kinase Selectivity, FLT-3 D835Y; conditions: tested at 10 uM, read-out: percent inhibition of the kinase activity
T15 construct: purchased Caliper LifeSciences
Method: as §1

GCK = molecular target: T16, GCK (Homo sapiens, UniProt Q12851); experiment: ProfilerPro Kinase Selectivity, GCK; conditions: tested at 10 uM, read-out: percent inhibition of the kinase activity
T16 construct: purchased Caliper LifeSciences
Method: as §1

GSK3B = molecular target: T17, GSK3B (Homo sapiens, UniProt P49841); experiment: ProfilerPro Kinase Selectivity, GSK3B; conditions: tested at 10 uM, read-out: percent inhibition of the kinase activity
T17 construct: purchased Caliper LifeSciences
Method: as §1

HER4 = molecular target: T18, HER4 (Homo sapiens, UniProt Q15303); experiment: ProfilerPro Kinase Selectivity, HER4; conditions: tested at 10 uM, read-out: percent inhibition of the kinase activity
T18 construct: purchased Caliper LifeSciences
T18 sequence (Q15303 26-1308, species assumed): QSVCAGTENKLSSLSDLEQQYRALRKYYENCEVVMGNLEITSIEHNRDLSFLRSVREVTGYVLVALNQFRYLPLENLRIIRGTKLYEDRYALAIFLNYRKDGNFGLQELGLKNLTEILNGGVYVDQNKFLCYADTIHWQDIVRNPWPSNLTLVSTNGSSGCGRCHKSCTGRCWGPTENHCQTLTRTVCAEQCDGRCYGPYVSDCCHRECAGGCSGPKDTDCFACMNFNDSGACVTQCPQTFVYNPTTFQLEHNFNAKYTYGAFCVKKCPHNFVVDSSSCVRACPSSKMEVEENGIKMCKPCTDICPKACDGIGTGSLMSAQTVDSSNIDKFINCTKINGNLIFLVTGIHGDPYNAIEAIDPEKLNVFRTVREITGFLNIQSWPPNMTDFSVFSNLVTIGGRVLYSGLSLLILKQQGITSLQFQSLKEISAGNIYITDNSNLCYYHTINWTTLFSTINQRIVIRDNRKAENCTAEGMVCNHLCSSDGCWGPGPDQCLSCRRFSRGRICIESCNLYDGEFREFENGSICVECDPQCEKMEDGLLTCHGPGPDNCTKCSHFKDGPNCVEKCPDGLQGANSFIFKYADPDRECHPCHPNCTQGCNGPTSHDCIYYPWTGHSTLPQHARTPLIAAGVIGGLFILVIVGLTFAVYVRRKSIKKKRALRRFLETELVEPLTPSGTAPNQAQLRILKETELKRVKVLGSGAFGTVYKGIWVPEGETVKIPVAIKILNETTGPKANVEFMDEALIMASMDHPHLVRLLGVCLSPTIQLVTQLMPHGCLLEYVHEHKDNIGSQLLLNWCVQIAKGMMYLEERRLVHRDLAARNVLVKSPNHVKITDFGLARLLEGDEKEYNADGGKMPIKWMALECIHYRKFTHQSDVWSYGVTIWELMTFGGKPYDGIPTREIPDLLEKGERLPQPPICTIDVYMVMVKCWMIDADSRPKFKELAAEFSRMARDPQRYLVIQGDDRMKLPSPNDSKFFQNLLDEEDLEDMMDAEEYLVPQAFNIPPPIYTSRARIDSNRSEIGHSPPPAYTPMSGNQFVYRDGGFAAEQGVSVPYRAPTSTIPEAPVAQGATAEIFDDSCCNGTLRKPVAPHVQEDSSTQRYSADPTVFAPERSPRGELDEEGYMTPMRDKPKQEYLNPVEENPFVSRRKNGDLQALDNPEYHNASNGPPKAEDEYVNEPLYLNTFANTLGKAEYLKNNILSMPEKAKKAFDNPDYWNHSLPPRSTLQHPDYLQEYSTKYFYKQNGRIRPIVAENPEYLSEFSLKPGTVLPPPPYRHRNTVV
Method: as §1

LRRK2 (G2019S) = molecular target: T19, LRRK2 (G2019S) (Homo sapiens, UniProt Q5S007, G2019S); experiment: ProfilerPro Kinase Selectivity, LRRK2 (G2019S); conditions: read-out: percent inhibition of the kinase activity
T19 construct: purchased Caliper LifeSciences
Method: as §1, with “Reader™.” for “Reader™. Each compounds' percent inhibition of the kinase activity measured in this manner is reported in the following lists.”

MELK = molecular target: T20, MELK (Homo sapiens, UniProt Q14680); experiment: ProfilerPro Kinase Selectivity, MELK; conditions: tested at 10 uM, read-out: percent inhibition of the kinase activity
T20 construct: purchased Caliper LifeSciences
Method: as §1

MST1 = molecular target: T21, MST1 (Homo sapiens, UniProt Q13043); experiment: ProfilerPro Kinase Selectivity, MST1; conditions: tested at 10 uM, read-out: percent inhibition of the kinase activity
T21 construct: purchased Caliper LifeSciences
Method: as §1

NEK2 = molecular target: T22, NEK2 (Homo sapiens, UniProt P51955); experiment: ProfilerPro Kinase Selectivity, NEK2; conditions: tested at 10 uM, read-out: percent inhibition of the kinase activity
T22 construct: purchased Caliper LifeSciences
Method: as §1

P38B2 = molecular target: T23, P38B2 (Homo sapiens, UniProt Q15759); experiment: ProfilerPro Kinase Selectivity, P38B2; conditions: tested at 10 uM, read-out: percent inhibition of the kinase activity
T23 construct: purchased Caliper LifeSciences
Method: as §1

PASK = molecular target: T24, PASK (Homo sapiens, UniProt Q96RG2); experiment: ProfilerPro Kinase Selectivity, PASK; conditions: tested at 10 uM, read-out: percent inhibition of the kinase activity
T24 construct: purchased Caliper LifeSciences
T24 sequence (Q96RG2 whole entry): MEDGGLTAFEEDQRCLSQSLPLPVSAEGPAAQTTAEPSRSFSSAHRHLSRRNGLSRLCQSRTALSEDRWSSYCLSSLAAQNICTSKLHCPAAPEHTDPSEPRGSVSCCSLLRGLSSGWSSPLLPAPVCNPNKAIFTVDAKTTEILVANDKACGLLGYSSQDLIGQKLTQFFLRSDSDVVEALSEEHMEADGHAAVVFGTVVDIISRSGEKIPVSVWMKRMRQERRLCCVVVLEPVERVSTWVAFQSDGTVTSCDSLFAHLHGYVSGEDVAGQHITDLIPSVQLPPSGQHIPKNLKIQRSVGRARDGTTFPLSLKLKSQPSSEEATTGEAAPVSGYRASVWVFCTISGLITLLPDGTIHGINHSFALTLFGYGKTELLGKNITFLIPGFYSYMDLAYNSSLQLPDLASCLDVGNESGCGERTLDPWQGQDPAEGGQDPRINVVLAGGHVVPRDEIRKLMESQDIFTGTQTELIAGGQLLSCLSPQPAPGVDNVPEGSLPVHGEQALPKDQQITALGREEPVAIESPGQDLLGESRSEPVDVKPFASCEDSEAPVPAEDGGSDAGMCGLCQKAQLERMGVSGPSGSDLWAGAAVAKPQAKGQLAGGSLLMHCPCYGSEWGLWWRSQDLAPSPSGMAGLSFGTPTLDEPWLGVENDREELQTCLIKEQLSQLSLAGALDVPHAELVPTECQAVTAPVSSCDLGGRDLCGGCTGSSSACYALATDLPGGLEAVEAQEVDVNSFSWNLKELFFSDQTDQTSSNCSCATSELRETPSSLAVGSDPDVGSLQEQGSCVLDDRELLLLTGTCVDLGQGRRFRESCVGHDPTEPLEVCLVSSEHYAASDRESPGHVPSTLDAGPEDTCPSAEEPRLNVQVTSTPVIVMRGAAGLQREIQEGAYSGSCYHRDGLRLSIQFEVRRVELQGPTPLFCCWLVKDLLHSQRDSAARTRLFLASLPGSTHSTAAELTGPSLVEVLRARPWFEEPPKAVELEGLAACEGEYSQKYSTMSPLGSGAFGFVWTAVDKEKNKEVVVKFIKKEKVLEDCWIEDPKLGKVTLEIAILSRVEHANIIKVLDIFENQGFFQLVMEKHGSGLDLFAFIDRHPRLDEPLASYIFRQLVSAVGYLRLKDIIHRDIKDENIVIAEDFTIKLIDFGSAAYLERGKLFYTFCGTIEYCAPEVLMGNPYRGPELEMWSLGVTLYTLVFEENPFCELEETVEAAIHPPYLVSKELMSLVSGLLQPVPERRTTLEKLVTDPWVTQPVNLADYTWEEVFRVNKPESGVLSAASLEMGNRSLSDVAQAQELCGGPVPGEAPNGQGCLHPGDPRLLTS
Method: as §1

PDGFRB = molecular target: T25, PDGFRB (Homo sapiens, UniProt P09619); experiment: ProfilerPro Kinase Selectivity, PDGFRB; conditions: tested at 10 uM, read-out: percent inhibition of the kinase activity
T25 construct: purchased Caliper LifeSciences
Method: as §1

PKCI = molecular target: T26, PKCI (Homo sapiens, UniProt P41743); experiment: ProfilerPro Kinase Selectivity, PKCI; conditions: tested at 10 uM, read-out: percent inhibition of the kinase activity
T26 construct: purchased Caliper LifeSciences
Method: as §1

PKD2 = molecular target: T27, PKD2 (Homo sapiens, UniProt Q9BZL6); experiment: ProfilerPro Kinase Selectivity, PKD2; conditions: tested at 10 uM, read-out: percent inhibition of the kinase activity
T27 construct: purchased Caliper LifeSciences
Method: as §1

PKD3 = molecular target: T28, PKD3 (Homo sapiens, UniProt O94806); experiment: ProfilerPro Kinase Selectivity, PKD3; conditions: tested at 10 uM, read-out: percent inhibition of the kinase activity
T28 construct: purchased Caliper LifeSciences
Method: as §1

PKG1A = molecular target: T29, PKG1A (Homo sapiens, UniProt Q13976); experiment: ProfilerPro Kinase Selectivity, PKG1A; conditions: tested at 10 uM, read-out: percent inhibition of the kinase activity
T29 construct: purchased Caliper LifeSciences
T29 sequence (Q13976 whole entry): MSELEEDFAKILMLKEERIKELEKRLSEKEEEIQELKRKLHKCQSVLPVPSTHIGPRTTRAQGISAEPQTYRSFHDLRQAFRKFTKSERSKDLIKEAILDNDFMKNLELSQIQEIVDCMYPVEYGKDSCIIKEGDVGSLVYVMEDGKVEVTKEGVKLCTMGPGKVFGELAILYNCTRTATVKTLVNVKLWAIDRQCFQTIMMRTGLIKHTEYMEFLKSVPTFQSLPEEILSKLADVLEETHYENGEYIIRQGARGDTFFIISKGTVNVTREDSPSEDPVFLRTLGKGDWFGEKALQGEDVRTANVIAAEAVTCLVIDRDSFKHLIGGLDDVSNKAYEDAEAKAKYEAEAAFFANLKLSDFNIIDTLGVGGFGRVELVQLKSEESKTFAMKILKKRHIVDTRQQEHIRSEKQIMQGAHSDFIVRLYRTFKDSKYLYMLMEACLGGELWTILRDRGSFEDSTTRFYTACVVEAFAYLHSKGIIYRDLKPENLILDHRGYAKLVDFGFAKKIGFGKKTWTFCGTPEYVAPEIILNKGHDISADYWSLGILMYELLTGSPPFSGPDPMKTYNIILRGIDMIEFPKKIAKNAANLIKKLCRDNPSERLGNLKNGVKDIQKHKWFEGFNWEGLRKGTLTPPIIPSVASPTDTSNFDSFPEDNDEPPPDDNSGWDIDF
Method: as §1

PKG1B = molecular target: T30, PKG1B (Homo sapiens, UniProt Q13976); experiment: ProfilerPro Kinase Selectivity, PKG1B; conditions: tested at 10 uM, read-out: percent inhibition of the kinase activity
T30 construct: purchased Caliper LifeSciences
T30 sequence (Q13976 1-686 isoform Q13976-2): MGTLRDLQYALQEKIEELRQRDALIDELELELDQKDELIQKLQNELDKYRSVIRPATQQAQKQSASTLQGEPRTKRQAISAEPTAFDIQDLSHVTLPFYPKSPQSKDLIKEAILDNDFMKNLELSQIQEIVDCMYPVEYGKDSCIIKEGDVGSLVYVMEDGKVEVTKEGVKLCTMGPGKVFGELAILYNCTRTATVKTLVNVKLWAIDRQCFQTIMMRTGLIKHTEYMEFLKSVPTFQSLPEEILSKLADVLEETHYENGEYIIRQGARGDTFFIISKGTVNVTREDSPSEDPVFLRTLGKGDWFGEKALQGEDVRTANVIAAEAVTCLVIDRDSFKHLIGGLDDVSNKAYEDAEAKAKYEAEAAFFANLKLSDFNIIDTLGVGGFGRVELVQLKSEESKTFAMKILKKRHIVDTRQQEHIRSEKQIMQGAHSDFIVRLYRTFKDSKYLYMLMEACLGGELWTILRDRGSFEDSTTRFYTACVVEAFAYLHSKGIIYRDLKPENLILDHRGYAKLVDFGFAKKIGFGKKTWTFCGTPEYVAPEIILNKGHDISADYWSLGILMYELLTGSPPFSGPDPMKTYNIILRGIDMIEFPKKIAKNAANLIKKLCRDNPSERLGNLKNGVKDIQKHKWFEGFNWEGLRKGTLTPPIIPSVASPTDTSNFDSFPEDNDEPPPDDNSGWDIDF
Method: as §1

PRKCD = molecular target: T31, PRKCD (Homo sapiens, UniProt Q05655); experiment: ProfilerPro Kinase Selectivity, PRKCD; conditions: tested at 10 uM, read-out: percent inhibition of the kinase activity
T31 construct: purchased Caliper LifeSciences
T31 sequence (Q05655 whole entry, species assumed): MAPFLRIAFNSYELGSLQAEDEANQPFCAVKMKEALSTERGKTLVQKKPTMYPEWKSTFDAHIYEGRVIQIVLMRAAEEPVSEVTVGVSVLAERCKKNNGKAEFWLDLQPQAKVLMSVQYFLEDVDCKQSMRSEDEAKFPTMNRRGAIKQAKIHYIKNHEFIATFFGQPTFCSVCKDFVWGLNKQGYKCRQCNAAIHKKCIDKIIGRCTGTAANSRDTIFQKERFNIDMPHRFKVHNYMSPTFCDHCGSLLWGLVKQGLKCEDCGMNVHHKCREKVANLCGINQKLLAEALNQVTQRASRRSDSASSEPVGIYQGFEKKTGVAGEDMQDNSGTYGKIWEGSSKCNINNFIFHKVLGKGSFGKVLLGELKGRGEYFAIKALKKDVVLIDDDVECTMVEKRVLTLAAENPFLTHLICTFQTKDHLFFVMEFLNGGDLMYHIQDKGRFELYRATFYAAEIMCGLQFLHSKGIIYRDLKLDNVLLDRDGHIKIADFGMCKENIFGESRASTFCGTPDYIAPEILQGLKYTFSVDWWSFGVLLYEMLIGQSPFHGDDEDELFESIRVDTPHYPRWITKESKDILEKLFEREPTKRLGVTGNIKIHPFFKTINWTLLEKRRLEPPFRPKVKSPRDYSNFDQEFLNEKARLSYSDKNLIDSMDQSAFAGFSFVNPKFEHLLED
Method: as §1

PRKCE = molecular target: T32, PRKCE (Homo sapiens, UniProt Q02156); experiment: ProfilerPro Kinase Selectivity, PRKCE; conditions: tested at 10 uM, read-out: percent inhibition of the kinase activity
T32 construct: purchased Caliper LifeSciences
Method: as §1

PRKCG = molecular target: T33, PRKCG (Homo sapiens, UniProt P05129); experiment: ProfilerPro Kinase Selectivity, PRKCG; conditions: tested at 10 uM, read-out: percent inhibition of the kinase activity
T33 construct: purchased Caliper LifeSciences
Method: as §1

RAF-1 = molecular target: T34, RAF-1 (Homo sapiens, UniProt P04049); experiment: ProfilerPro Kinase Selectivity, RAF-1; conditions: tested at 10 uM, read-out: percent inhibition of the kinase activity
T34 construct: purchased Caliper LifeSciences
Method: as §1

ROCK2 = molecular target: T35, ROCK2 (Homo sapiens, UniProt O75116); experiment: ProfilerPro Kinase Selectivity, ROCK2; conditions: tested at 10 uM, read-out: percent inhibition of the kinase activity
T35 construct: purchased Caliper LifeSciences
Method: as §1

RSK1 = molecular target: T36, RSK1 (Homo sapiens, UniProt Q15418); experiment: ProfilerPro Kinase Selectivity, RSK1; conditions: tested at 10 uM, read-out: percent inhibition of the kinase activity
T36 construct: purchased Caliper LifeSciences
Method: as §1

YES = molecular target: T37, YES (Homo sapiens, UniProt P07947); experiment: ProfilerPro Kinase Selectivity, YES; conditions: tested at 10 uM, read-out: percent inhibition of the kinase activity
T37 construct: purchased Caliper LifeSciences
Method: as §1

| SMILES | inhibition at 10 µM (ABL H396P) [%] | inhibition at 10 µM (AKT2) [%] | inhibition at 10 µM (BRSK2) [%] | inhibition at 10 µM (BTK) [%] | inhibition at 10 µM (CAMK1A) [%] | inhibition at 10 µM (CK1G3) [%] | inhibition at 10 µM (DCAMKL2) [%] | inhibition at 10 µM (DYRK1B) [%] | inhibition at 10 µM (EPHB3) [%] | inhibition at 10 µM (ERK2) [%] | inhibition at 10 µM (FGFR3 K650E) [%] | inhibition at 10 µM (FGFR4) [%] | inhibition at 10 µM (FGR) [%] | inhibition at 10 µM (FLT3) [%] | inhibition at 10 µM (FLT-3 D835Y) [%] | inhibition at 10 µM (GCK) [%] | inhibition at 10 µM (GSK3B) [%] | inhibition at 10 µM (HER4) [%] | inhibition at 10 µM (MELK) [%] | inhibition at 10 µM (MST1) [%] | further results |
| --- | --- | --- | --- | --- | --- | --- | --- | --- | --- | --- | --- | --- | --- | --- | --- | --- | --- | --- | --- | --- | --- |
| CSc1sc(-c2cc[nH]n2)c2c1C(=O)CCC2 [Example 1, 3-(Methylsulfanyl)-1-(1H-pyrazol-3-yl)-6,7-dihydro-2-benzothiophen-4(5H)-one] | 10.3 | -6.8 | -1.7 | 3.1 | 7.4 | 1.1 | -0.8 | 40.2 | -1 | 4.5 | 3.7 | 5.9 | -7.2 | 11.4 | 39.3 | 6.3 | 5.4 | -2.4 | 11 | 7.2 | inhibition at 10 µM (LRRK2 (G2019S)): 88.3%; inhibition at 10 µM (NEK2): -0.8%; inhibition at 10 µM (P38B2): -1.3%; inhibition at 10 µM (PASK): 2.6%; inhibition at 10 µM (PDGFRB): 22.1%; inhibition at 10 µM (PKCI): -14%; inhibition at 10 µM (PKD2): -2.5%; inhibition at 10 µM (PKD3): 12%; inhibition at 10 µM (PKG1A): -5.9%; inhibition at 10 µM (PKG1B): 10.8%; inhibition at 10 µM (PRKCD): -14.8%; inhibition at 10 µM (PRKCE): -2.7%; inhibition at 10 µM (PRKCG): 10%; inhibition at 10 µM (RAF-1): 3.1%; inhibition at 10 µM (ROCK2): -3.5%; inhibition at 10 µM (RSK1): 9.5%; inhibition at 10 µM (YES): -4.4% |
| CC1(C)CC(=O)c2c(SC3CCCC3)sc(-c3cc[nH]n3)c2C1 [Example 7, 3-(Cyclopentylsulfanyl)-6,6-dimethyl-1-(1H-pyrazol-3-yl)-6,7-dihydro-2-benzothiophen-4(5H)-one] | 3.1 | -6.8 | -11.1 | 4.8 | 6 | 7.7 | -4.2 | 4.7 | 2.2 | -0.9 | -4.2 | -0.1 | -1.6 | 4.6 | 2.7 | 11.8 | 0.5 | -2.2 | 7.3 | -3 | inhibition at 10 µM (LRRK2 (G2019S); LRRK2 (G2019S), tested at 10 uM): 78.3%; inhibition at 10 µM (NEK2): 0.9%; inhibition at 10 µM (P38B2): -0.7%; inhibition at 10 µM (PASK): -10.8%; inhibition at 10 µM (PDGFRB): -1.4%; inhibition at 10 µM (PKCI): -8.9%; inhibition at 10 µM (PKD2): -4.2%; inhibition at 10 µM (PKD3): 2.6%; inhibition at 10 µM (PKG1A): 1.9%; inhibition at 10 µM (PKG1B): -0.6%; inhibition at 10 µM (PRKCD): 12.6%; inhibition at 10 µM (PRKCE): 3.9%; inhibition at 10 µM (PRKCG): 2.3%; inhibition at 10 µM (RAF-1): -0.2%; inhibition at 10 µM (ROCK2): 0.9%; inhibition at 10 µM (RSK1): 3.3%; inhibition at 10 µM (YES): -11.1% |
